Experimental data from article PMC9347360 (RSC Chemical Biology, 2022).
Where a SMILES comes first, the peptide text is derived from it.

Experiments:
BRD4-BD1 [1] = assay: ITC binding to BRD4-BD1; conditions: BRD4-BD1 Kd (ref 36) compared to that of BRD1-BD
wild type BRD1-BD = target: T1, wild type BRD1-BD (Homo sapiens, UniProt O95696); assay: ITC binding to wild type BRD1 bromodomain
T1 sequence (O95696 562-666 limits assumed): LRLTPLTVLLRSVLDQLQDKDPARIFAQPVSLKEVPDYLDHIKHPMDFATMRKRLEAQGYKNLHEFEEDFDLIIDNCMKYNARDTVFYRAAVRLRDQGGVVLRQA

BRD4-BD1 [2] = conditions: as measured previously; cited from earlier work

## CC(=O)NCCCC[C@H](NC(=O)CNC(=O)[C@H](C)NC(=O)[C@H](C)NC(=O)[C@H](CCCCNC(C)=O)NC(=O)[C@H](C)N)C(=O)N[C@@H](CC(C)C)C(=O)N[C@@H](CCCCNC(C)=O)C(=O)N[C@@H](C)C(N)=O [peptide 6] (H-AK(Ac)AAGK(Ac)LK(Ac)A-NH2)
BRD4-BD1 [1]
  Kd for BRD4-BD1 relative to BRD1-BD (fold higher): about 15 fold
Wild type BRD1-BD
  Kd: 24.5 ± 11.7 µM
BRD4-BD1 [2]
  Kd: 353 µM
